Experimental data: ChEMBL document CHEMBL5726498, “Substituted benzothiophenyl derivatives as GPR40 agonists for the treatment of type II diabetes” (2017)

Molecular target: Free fatty acid receptor 1 (Homo sapiens, UniProt O14842)
Test: Calcium Flux Assay: Compounds were tested in a calcium flux assay using transfected HEK293 cells stably expressing either human GPR40 or rat GPR40. Human GPR40 expressing cells were cultured in DMEM-High Glucose media supplemented with 10% fetal bovine serum, 1×L-Glutamine, 1× Penicillin/Streptomycin and 500 μg/mL G418. Rat GPR40 expressing cells were cultured in DMEM-High Glucose media supplemented with 10% fetal bovine serum and 1 μg/mL puromycin. Cells were plated into poly-D-lysine coated 384-well plates and cultured overnight in a 37° C. humidified tissue culture incubator under 5% CO2/[…] atmosphere. On the day of the experiment, the culture media was replaced with assay buffer (HBSS, 20 mM HEPES, 0.1% BSA) and the cells incubated at 37° C. for 1 h. Calcium-sensitive fluorescent dye (Fluo 8 No-Wash Calcium Dye, ABD Bioquest) was then added and the cells incubated for another 30 min at 37° C. followed by 15 min at room temperature while protected from the light. The cell plate and a plate of diluted compounds of Formula (I) were loaded into a fluorescent plate reader that added compounds onto the cells while measuring the fluorescence intensity of each well.

Sequence of Free fatty acid receptor 1 (O14842 whole entry): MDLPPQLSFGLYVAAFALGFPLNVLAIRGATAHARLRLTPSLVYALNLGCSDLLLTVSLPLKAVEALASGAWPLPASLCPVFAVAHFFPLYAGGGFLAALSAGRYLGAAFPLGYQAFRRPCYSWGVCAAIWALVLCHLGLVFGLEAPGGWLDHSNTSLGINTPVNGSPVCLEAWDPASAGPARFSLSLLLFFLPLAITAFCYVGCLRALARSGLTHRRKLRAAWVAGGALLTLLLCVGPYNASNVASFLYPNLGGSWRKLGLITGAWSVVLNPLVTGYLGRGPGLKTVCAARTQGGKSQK

In the case of `CC#C[C@@H](CC(=O)O)c1ccc(OCc2ccc3scc(-c4ccccc4S(C)(=O)=O)c3c2)cc1`, the EC50 is reported as 15 nM.
